Key:
Plasmodium yoelii = test: Antiplasmodial activity against Plasmodium yoelii infected in liver cells assessed as inhibition of proliferation; type: functional, organism-based
Plasmodium falciparum = test: Antiplasmodial activity against Plasmodium falciparum infected in human blood cells assessed as inhibition of proliferation; type: functional, organism-based

Compound	EC50 (Plasmodium yoelii) [nM]	EC50 (Plasmodium falciparum) [nM]
CN(C(=O)c1cn2c(-c3ccc(C(N)=O)cc3)cnc2cn1)c1ccc(F)cc1	56	74
CN(Cc1cn2c(-c3ccc(C(N)=O)cc3)cnc2cn1)c1ccc(F)cc1	7	30
CN(Cc1cn2c(-c3ccc(C(N)=O)cc3)cnc2cn1)c1ccc(Cl)cc1	11	9
Cc1ccc(N(C)C(=O)c2cn3c(-c4ccc(C(F)(F)F)cc4)cnc3cn2)nc1	1110	199
